“Also recorded” adds a separate entry of the source.
What was measured:
HK mutant = test: Phenotypes of the mutants: lysis by penicillin, vancomycin, DOC; assay type: cell-based, S. pneumoniae
Procedure: (§1) Construction of mutations: Insertion duplication mutagenesis was carried out using PCR to generate gene fragments for homologous recombination proximal to the amino terminus of OrfW1, HK or RR as follows:
(§2) Phenotypes of the mutants: The mutants were assessed for various physiological functions characteristic of pneumococci. This included lysis by penicillin, vancomycin, and the detergent deoxycholate (DOC). Other capabilities tested included ability to undergo natural DNA transformation (Transform) and expression of the LytA protein as assessed by Western blot.

Orf W1 mutant = test: as above; assay type: cell-based, S. pneumoniae
Procedure: as §1, §2

RR mutant = test: as above; assay type: cell-based, S. pneumoniae
Procedure: as §1, §2

pneumococcal strain R6 = test: Cell growth curves (OD 620 nm) and viability of R6 with peptide; assay type: cell-based, Streptococcus pneumoniae; settings: for ability to inhibit R6 growth: peptides at 100 μM added to growing R6 at OD 620 nm of 0.1
Procedure: (§3) Cell growth curves were performed in the presence or absence of the test reagents as specified. In short, samples were prepared as follows: 1 ml of a pneumococcus culture was placed into 10 ml of prewarmed Semisynthetic (C+Y) medium. The optical density (OD) of the bacteria was monitored at 620 nm until an OD of approximately 0.1 was reached. At this point the test reagents were administered to the samples. The cells were cultured for up to 11 hours at 37° Celsius, and the OD at 620 nm was monitored every hour. A decrease in OD 620 is indicative of cell lysis, an increase is indicative of bacterial growth. No change in optical density indicates growth inhibition.
To characterize the antibacterial activity of the peptide, pneumococcal strain R6 which is sensitive to penicillin was exposed to 0.1 mM of the peptide having the amino acid sequence of SEQ ID NO:2 at an optical density of 0.01 (bacterial density of 3×10^6 cfu/ml). Bacterial growth as measured by optical density was followed for 11 hours and viability was assessed by plating on blood agar. […] Four hours after the start of the experiment, the control strain grew from 3×10^6 to 1.2×10^7 cfu/ml. In contrast, four hours after addition of the peptide, the viable bacterial number decreased from 3×10^6 to 3×10^4 CFU/ml (10^3-fold lower than the control).
The fact that the peptide is active in the range below 1 μg/ml places the potency of its antibacterial effect in the same range as conventional antibiotics.
R6 with no peptide was the control and underwent exponential growth. […] This enhanced activity may result from an improvement in folding of the peptide or greater access to the bacterial target.

[1] = system: loss of function mutants of the ABC transporter and RR/HK; test: Tolerance of loss of function mutants; assay type: cell-based, S. pneumoniae; settings: growth inhibitory concentrations
Source text: As described in Example 6, using insertion duplication mutagenesis, loss of function mutations were obtained in each of the 3 open reading frames of the ABC transporter and each of the two parts of the RR/HK. […] These parallel phenotypes further implicate these topographically close genes in a common pathway.
Vancomycin is the only antibiotic that maintains efficacy against many strains of highly antibiotic resistant bacteria, such as staphylococci, enterococci and pneumococci. Escape from antibiotic activity of vancomycin has been detected in rare staphylococci and enterococci but not in pneumococci as yet. […] Infect. Dis. J., 12:196-200 (1993); Marton et al., J. Infect. Dis., 163:542-8 (1991); and Bradley et al., Pediatr. Infect. Dis., 14:1037-1041 (1995)]. […] If they created a phenotype which was corrected by exogenous peptide, they may participate in the biological activity of the peptide. For instance, the ABC transporter may transport the peptide and the HK may serve as an extracellular receptor for the peptide which then changes the behavior of the bacteria (i.e., killing) via a RR signal.

clinical isolate A144 [2] = test: Cell viability (CFU/ml) one hour after addition; assay type: cell-based, pneumococcus; settings: 10×MIC of penicillin, 1×MIC of vancomycin or 0.4 mM peptide
Source text: (§4) Tolerance to penicillin occurs in bacteria that fail to trigger autolysins in response to the drug. […] This is a mechanism of resistance to these drugs and is a serious emerging medical problem. […] However, one pneumococcal strain that fails to lyse and dies slowly in response to both penicillin and vancomycin is the clinical isolate A144. This combination of traits makes A144 recalcitrant to therapy. FIG. 8 compares the activity of penicillin, vancomycin, and the peptide having the amino acid sequence of SEQ ID NO:2 against a classical sensitive strain, R6, and the tolerant strain A144. […] In contrast, strain A144 loses only 0.5 logs of viability in the same time period for all three therapies. […] Thereafter the bacteria grew more slowly than untreated controls.

[3] = system: pneumococcus R6 in medium lacking lysine; test: Phenotypic tolerance: lysis under starvation conditions; assay type: cell-based; settings: for lysis response of non-growing bacteria: 10×MIC of penicillin and/or 0.5 mM peptide
Source text: When bacteria grow slowly or stop growing due to nutrient deprivation, they become tolerant to antibiotics of all classes. […] This prolongs the course of antibiotics needed to treat these infections. For instance, many weeks of therapy are required to treat endocarditis and osteomyelitis secondary to slowly growing bacteria. An in vitro example of phenotypic tolerance is shown in FIG. 10 where pneumococcus R6 has been transferred at time 0 to a medium lacking the essential amino acid lysine. Penicillin was added 5 min after the transfer. […] This same response is seen with the peptide having the amino acid sequence of SEQ ID NO:2.

clinical isolate F79 = test: Lysis of tolerant clinical isolate; assay type: cell-based, pneumococcus; settings: 10×MIC of penicillin and/or 0.5 mM peptide
Procedure: (§5) FIGS. 11A-11B show the effects of 10×MIC of penicillin and/or 0.5 mM of the peptide having the amino acid sequence of SEQ ID NO:2 on the lysis of clinical isolate F79 cells (FIG. 11A) and HK mutant VanS cells (FIG. 11B).
(§6) F79 is a natural isolate of pneumococcus with mutations in the HK and the ABC transporter genes as determined by SSCP (see Example 11).

HK mutant Van S = test: Lysis of HK mutant; assay type: cell-based, pneumococcus; settings: 10×MIC of penicillin and/or 0.5 mM peptide
Procedure: as §5, §6

[4] = system: leucine deprived R6 cells; test: Stringent response: lysis after leucine deprivation; assay type: cell-based, S. pneumoniae
Procedure: P27 and the stringent response mechanism: The stringent response is believed to prevent the death pathway. To clarify the relationship of the stringent response to P27 activity, protein synthesis of R6 was inhibited by leucine deprivation and the effect of P27 was monitored (FIG. 19). […] The minimum concentration of penicillin required to cause penicillin dependent autolysis was equal to its MIC ([…]).

mutant SPSJ01 = test: Screen of library of loss of function mutants for antibiotic tolerance; assay type: cell-based, pneumococcus
Source text: To detect genes that are part of the trigger pathway of the pneumococcal autolysin a library of loss of function mutants has been created, which was screened for antibiotic tolerance [Pearce et al., Mol. Microbiol., 9:1037-1050 (1993)]. […] It is reasonable to assume that this two component system represents the start of the pneumococcal autolytic trigger pathway, functioning as a relay station reacting to cell density signals or the binding of antibiotics to penicillin binding proteins. Similar to the enterococcal histidine kinase VanSB, the pneumococcal VncS works most likely as a kinase/phosphatase (see Example 1, above).

[5] = system: autolysin deficient strain Lyt 4-4; test: Growth and killing of autolysin deficient strain; assay type: cell-based, Streptococcus pneumoniae; settings: Lyt 4-4, 0.1 mM peptide
Procedure: The addition of the additives were made at time “0” hours. The strain of bacteria cultured was the Lyt-4-4 strain of Streptococcus pneumoniae which harbors a mutation leading to the loss of LytA activity. The peptide having the amino acid sequence of SEQ ID NO:2 was added as indicated at a concentration of 0.1 mM. Lyt-4-4 lacks active autolysin LytA and is therefore tolerant to penicillin treatment.
as §3
This antibacterial effect was also demonstrable in bacteria mutated so as to prevent autolysis by point mutation in the autolysin, as in the autolysin deficient strain Lyt 4-4. […]

Lyt 4-4 = test: Loss of chain formation (morphology); assay type: cell-based, Streptococcus pneumoniae; settings: Lyt 4-4, 0.5 mM peptide in the medium
Source text: Loss of chain formation is a measure of antibacterial activity independent of autolysin.
Strains of pneumococcus that are tolerant to penicillin, such as Lyt 4-4, grow in long chains as compared to the diplococcal morphology of wild type pneumococci. FIG. 6A illustrates these chains, which extend to 30-50 bacteria in length.
P27 is capable of triggering different autolytic pathways: To identify the relationship between P27 and the activation of the autolysin LytA, the bactericidal effect of the peptide on the pneumococcal mutant Lyt-4-4 (which is deficient in the major autolysin), was investigated. […] Compared to the diplococcal morphology of wild type pneumococci, pneumococci lacking an active autolysin grow in long chains.

RR/HK mutants = test: Antibacterial activity of the peptide in the mutants; assay type: cell-based, S. pneumoniae; settings: peptide added exogenously
Source text: (§7) To test this hypothesis the ability of the peptide having the amino acid sequence of SEQ ID NO:2 to maintain antibacterial activity in the mutants was examined. […] Furthermore, bacteria which are tolerant by virtue of phenotypic tolerance due to slow growth rate or mutations in genes other than the RR/HK will be susceptible to the antibacterial effect of the peptide having the amino acid sequence of SEQ ID NO:2.

mutant in ORF W1 = test: as above; assay type: cell-based, S. pneumoniae; settings: mutant in ORF W1, peptide added from the outside
Source text: as §7

clinical isolate A144 [6] = test: Growth of the clinical isolate; assay type: cell-based, pneumococcus; settings: 0.1 mM peptide added early in the growth cycle
Source text: as §4

deoxycholate [DOC]
Lysis by (HK mutant): yes
Lysis by (Orf W1 mutant): no
Lysis by (RR mutant): yes

CC1(C)S[C@@H]2[C@H](NC(=O)Cc3ccccc3)C(=O)N2[C@H]1C(=O)O [penicillin, benzylpenicillin]
time to lysis of R6 (pneumococcal strain R6; growing R6, penicillin at 10×MIC): within one hour
Lysis by (HK mutant): tolerant
Lysis by (Orf W1 mutant): tolerant
Lysis by (RR mutant): sensitive
tolerance (lysis and death) [1]: failed to lyse and die
loss of viability (clinical isolate A144 [2]): 0.5 logs
viability of non-growing bacteria ([3]; 10×MIC of penicillin): unaffected
lysis response of non-growing bacteria [3]: only a minimal response
lysis of F79 (clinical isolate F79): tolerant
lysis of Van S (HK mutant Van S): tolerance
lysis of R6 under leucine deprivation ([4]; 10×MIC of penicillin or vancomycin, 0.2 mM P27, or combination): neither the addition of 10×the MIC of penicillin or vancomycin nor the addition of 0.2 mM P27 resulted in lysis
minimum concentration of penicillin required to cause penicillin dependent autolysis ([4]; leucine deprived R6, in combination with P27): 0.1 mg/mL
death in the presence of antibiotic (mutant SPSJ01): failed to die

MRKEFHNVLSSGQLLADKRPARDYN (listed as Streptococcus pneumoniae) [Peptide 1]
Bacterial growth as measured by optical density (pneumococcal strain R6; R6, 0.1 mM peptide, followed for 11 hours): completely inhibited growth
viable number, fold lower than the control (pneumococcal strain R6; R6, 0.1 mM peptide, four hours): 10^3 fold
viable bacterial number (pneumococcal strain R6; R6, 0.1 mM peptide, four hours after addition, start 3×10^6): 3×10^4 CFU/ml
lysis (pneumococcal strain R6; R6, 0.1 mM peptide, listed as SEQ ID NO:2): without substantial cell lysis; also recorded: No lysis was detected
minimum effective concentration (MEC) (pneumococcal strain R6; R6, converted with molecular weight 2940): 0.15 to 0.3 µg/mL
minimum effective concentration (pneumococcal strain R6; R6, optical density over 4 hours): 50 to 100 nM
dose dependence of antibacterial activity (pneumococcal strain R6; R6, various amounts of peptide, 4 hours): dose dependent antibacterial activity
ability to inhibit R6 growth (pneumococcal strain R6): significant delay in the onset of bacterial growth
bactericidal activity [5]: demonstrable
chain formation (Lyt 4-4; listed as SEQ ID NO.2): dissolution of the chains
chain formation (Lyt 4-4; listed as SEQ ID NO:2): reversion of the chains to diplococci
growth inhibition (RR/HK mutants): did not function to inhibit the growth
growth inhibition (mutant in ORF W1): not able to inhibit growth
loss of viability (clinical isolate A144 [2]): 0.5 logs
growth of strain A144 (clinical isolate A144 [6]): significantly inhibits the growth of strain A144 for 4 hours
lysis response of non-growing bacteria [3]: same response
lysis of Van S (HK mutant Van S): not responsive

MRKEFHNVLSSGQL (listed as Streptococcus pneumoniae) [Peptide 4]
ability to inhibit R6 growth (pneumococcal strain R6): Exponential growth equal to untreated bacteria

LADKRPARDYN (listed as Streptococcus pneumoniae) [Peptide 5]
ability to inhibit R6 growth (pneumococcal strain R6): Exponential growth equal to untreated bacteria

MRKEFHNVLSSGQLLADKRPARDAN [Peptide 2]
ability to inhibit R6 growth (pneumococcal strain R6): greatly decreased anti-bacterial activity

MRKEFHNVLSAGQLLADKRPARDYN [Peptide 3]
ability to inhibit R6 growth (pneumococcal strain R6): greatly enhanced antibacterial effect

MEFMRKEFHNVLSSGQLLADKRPARDYN (listed as Streptococcus pneumoniae) [SEQ ID NO:12]
antibacterial activity against R6 (pneumococcal strain R6): no antibacterial activity

— patent US6630583B1, “Antibiotics and methods of using the same” (priority 1998, dated 2003)
